Reference: patent US20250170239A1, “CELLULAR REPROGRAMMING BY TARGETING THE GOLGI APPARATUS” (MUSC Foundation for Research Development, priority 2023, published 2025)

How the values were obtained:
Format in all cases: cell-based, mouse
CD8+ Pmel T cells = assay: RT-PCR of CBS and CSE in cytokine-treated CD8+ Pmel T cells; conditions: CD8+ Pmel T cells activated 3 days in presence of cytokine
From the text: (FIG. 13A) Pmel T cells were stained with trypan blue stain on day 3 following activation with gp100+IL2 (100 IU/ml) and treated with concentrations of GYY4137 (n=5). (FIG. 13B) Gating strategy for FACS analysis. Pmel splenocytes stained with LIVE/DEAD Fixable Yellow dye and anti-CD8 PE-Cy7. All FACS samples were first gated on the lymphocyte population based on FSA vs SSA. Single cells were gated using FSA vs. FSH. Live cells were gated using live/dead exclusion dye. CD8+ cells were gated by selecting the positive population. (FIG. 13C) Pmel T cells were stimulated with gp100 tumor antigen and treated with either vehicle or GYY4137 (0.5 mM) and analyzed by FACS for expression of CD62L and CD44 at day 0, day 2, day 4, and day 6. […] (FIG. 13F) CD8+ Pmel T cells were activated for 3 days in the presence of various cytokines and analyzed for mRNA expression of CBS and CSE. […] Splenocytes were activated with anti-CD3 and anti-CD28 antibodies an analyzed for expression of Cbs by western blot. (FIG. 13H) Splenocytes from WT and Cbs-KO mice were expanded with either IL-2 or expanded with IL-15 (10 ng/ml) with or without addition of H2S to the Cbs-KO cells and analyzed for expression of CD62L and CD44 by FACS (n=3). […] At day 14, the mice were bled and the frequency of CD3+ T cells was assessed by FACS (n=5). […] (FIG. 13K) Cells were analyzed using FACS for expression of PD1, TIM3, Lag3, and CD38 (n=3). […]

Pmel T cells = assay: Golgi stress (monensin, H2O2, thapsigargin) in Pmel T cells: GM130, ROS, Golgi dispersion; parameters: cell death / mitochondrial ROS / monensin-induced cell death and mitochondrial ROS accumulation / ER stress (p-PERK): dose or concentration left out as unconfirmed
Description: (FIG. 21A) Levels of intracellular glutathione assessed using FACS by employing ThiolTracker Violet dye in control CD19 CAR-T cells or CAR-T cells overexpressing Cbs (CbstdCD19-CAR-T) (n=3). (FIG. 21B) 12 hour Thapsigargin (700 nM) treatment was used to induce ER stress in WT T cells, Cbs-KO T cells, and Cbs-KO T cells+H2S. Levels of phosphorylated PERK were assessed by FACS (n=3). (FIG. 21C) Pmel T cells were treated with either Thapsigargin (700 nM) or Monensin (1 mM) for 12 hours, followed by staining for phosphorylated PERK (p-PERK) and GM130 to assess ER stress and Golgi stress, respectively (n=4). (FIG. 21D) Activated Pmel T cells were treated for 12 hours with either vehicle control or 1 mM Monensin (“+Golgi stress”) before being stained for giantin to assess Golgi dispersion. […] (FIG. 21E) Representative confocal microscopy images of mitochondria (Tom20) and Golgi (giantin) in human PBMCs treated with vehicle control or 0.5 mM GYY4137.
T cells were stained with conjugated for surface markers as described in the figure legends followed by fixation and permeabilization with BD Cytofix/Cytoperm Kit (BD Biosciences, 554722). The Golgi was labeled using anti-Giantin antibody (Abcam, ab80864) as the primary antibody followed by secondary antibody staining with anti-Rabbit IgG conjugated to Alexa Fluor 488 (ab150077). The cells were then imaged using ImageStreamX mark II imaging flow-cytometer and analyzed using IDEAS 6.2. Spectral overlap was compensated for using single-stain controls. Image analysis for Golgi area was performed using the protocol established by Eisenberg-Lerner et al.44 First, cells were gated on single cells using the area and aspect ratio features, and then gated on focused cells using the Gradient RMS feature. Golgi area was calculated using the anti-Giantin fluorescence signaling, using on the Threshold_50 mask that includes the 50% highest intensity pixels of the Golgi staining, with a mask defined as Area Threshold 50 was considered as the Golgi area to compare between the relevant conditions.

Prdx4 knockdown T cells = assay: Prdx4 siRNA knockdown Pmel T cells under Golgi/oxidative stress
Description: (FIG. 22A) Pmel T cells were activated for 3 days before treatment with vehicle or 50 mM H2O2 for 6 hrs. Prdx4-Golgi colocalization was assessed by PLA using mouse anti-Giantin and rabbit anti-Prdx4 antibodies. (FIG. 22B) Activated Pmel T cells treated with vehicle or 50 mM H2O2 for 6 hrs or 24 hrs with Monensin (1 mM). PLA assay was performed using anti-Giantin and anti-Prdx4 antibodies. (FIG. 22C) Experimental design using Prdx4-targeted siRNA to silence expression of Prdx4 in Pmel T cells. (FIG. 22D) GM130 expression assessed under control versus Monensin (1 μM) conditions in T cells treated with control-siRNA or Prdx4-siRNA. (FIG. 22E) GM130 expression assessed under control versus 50 mM H2O2 conditions in T cells treated with control-siRNA or Prdx4-siRNA+/−0.5 mM GYY4137. (FIG. 22F) Protein translation assessed in Pmel T cells activated+/−GYY4137 and treated with control-siRNA or Prdx4-siRNA. (FIG. 22G) GM130 expression in Pmel T cells treated with vehicle, GYY4137, or Catalase (10 μg/mL). (FIGS. 22H and 22I) Site directed mutagenesis performed to mutate cysteine-54 of the Prdx4 gene. Prdx4-targeted shRNA was used to knock down expression of Prdx4 in Jurkat T cells, followed by transfection with plasmid containing wildtype or mutated Prdx4. (FIG. 22I) GM130 expression assessed after treatment with 50 mM H2O2+/−GYY4137. (FIG. 22J) B16-F10 tumors were injected s.c. into flanks of Pmel mice and grown to ˜100 mm2. TILs and T cells from tumor-draining lymph nodes were isolated via Ficoll spin followed by magnetic bead positive selection. FACS analysis of Prdx4 expression in TILs gated on PD1loLag3lo vs PD1hiLag3hi. (FIG. 22K) Lentiviral supernatant was generated using GFP-tagged control plasmid or GFP-tagged Prdx4-overexpression plasmid. Pmel T cells were transduced with control or Prdx4 lentivirus. Pmel T cells overexpressing Prdx4 and control T cells were treated with H2O2 (50 mM) followed by staining with anti-GM130.
Given the delicate redox balance necessary for the native disulfide bonds, it was postulated that a localized mechanism for the detection and elimination of ROS produced during the oxidative folding process may require Prdx4. Thus, it was hypothesized that ER and Golgi network stress mitigated by H2S is mediated through the Prdx4 localization and activity in these organelles. First, it was established if Prdx4 also localizes within the Golgi apparatus in T cells using a proximity ligation assay (PLA), a tool that allows in situ detection of endogenous proteins with high specificity and sensitivity, with antibodies directed against Giantin (a conserved Golgi membrane protein) and Prdx4. […] Next, using siRNA targeting Prdx4, expression of Prdx4 in CD8+ Pmel T cells was knocked down (FIG. 22C, FIGS. 23A and 23B). The cells were then subjected to conditions of oxidative and Golgi stress in the presence or absence of H2S treatment. […] Then, to determine whether the protective effect of H2S on Golgi stress is dependent on the presence of Prdx4, Golgi stress was induced in the presence or absence of H2S with control (siCtl) and Prdx4 knockdown (siPrdx4) T cells.

“IL6: cytokine that plays a key role in memory formation” was tested, and the “mRNA expression of CBS and CSE” value (CD8+ Pmel T cells) was “significantly increased expression of both CBS and CSE”.
With `C/C=C(/C)C(=O)O[C@H]1C(C)=C2[C@H]([C@@H]1OC(=O)CCCCCCC)[C@@](C)(OC(C)=O)C[C@H](OC(=O)CCC)[C@@]1(O)[C@H]2OC(=O)[C@@]1(C)O` [Thapsigargin] the “Golgi stress (GM130)” value (Pmel T cells; Thapsigargin (700 nM) 12 hours) was “nor did Thapsigargin induced Golgi stress”.
For `CC[C@@]1([C@@H]2O[C@@H]([C@H]3O[C@@](O)(CO)[C@H](C)C[C@@H]3C)C[C@@H]2C)CC[C@H]([C@]2(C)CC[C@]3(C[C@H](O)[C@@H](C)[C@@H]([C@@H](C)[C@@H](OC)[C@H](C)C(=O)O)O3)O2)O1` [monensin], the “decrease in GM130 expression, Prdx4 knockdown T cells” value (Prdx4 knockdown T cells; Monensin (1 μM)) was “further exacerbated”, the “ER stress (p-PERK)” value (Pmel T cells) was “did not induce ER stress” and the cell death (Pmel T cells) was “induced cell death”. The “mitochondrial ROS” value (Pmel T cells) was “cellular accumulation of mitochondrial ROS”, the “Golgi dispersion (Golgi area, ImageStream)” value (Pmel T cells; 1 mM Monensin 12 hours) was “Golgi dispersion significantly increased” and the “intracellular ROS (DCFDA)” value (Pmel T cells; 1 mM monensin) was “significant increase in ROS (DCFDA)”.
In the case of catalase, the “protection against Golgi stress (GM130), Prdx4 knockdown T cells” value (Prdx4 knockdown T cells; Catalase (10 μg/mL)) is reported as “protection against Golgi stress could be rescued”.
In the case of “IL15: cytokine known to induce the Tcm phenotype in T cells”, the “mRNA expression of CBS and CSE” value (CD8+ Pmel T cells) is reported as “significantly increased expression of both CBS and CSE”.
